In patent publication US20060057669A1, “Inactive transcription factor tif-ia and uses thereof” (priority 2002, published 2006):

Legend:
Pol I transcription [1] = assay: In vitro transcription: TIF-IA mutants restoring rDNA transcription of nuclear extract from density-arrested FM3A cells; type: biochemical, murine
Method: (A) Transcriptional activity of TIF-IA mutants in vitro. FLAG-tagged wild-type TIF-IA and the indicated single or double point mutants were overexpressed in HEK293T cells, immunopurified, and 20 and 40 ng were assayed for their capability to restore rDNA transcriptional activity of nuclear extract from density-arrested FM3A cells. The amount and purity of TIF-IA were estimated on silver-stained SDS-polyacrylamide gels and Western blots (data not shown).
(A) Transcriptional activity of TIF-IAS199A and TIF-IAS199D in vitro. FLAG-tagged wild-type TIF-IA and the indicated mutants were immunopurified from HEK293T cells, and 30 and 60 ng were assayed for their capability to restore transcriptional activity of nuclear extract from density-arrested FM3A cells. The amount and purity of TIF-IA were estimated on silver-stained SDS-polyacrylamide gels (data not shown).
(B) Transcriptional activity of TIF-IAS44A in vitro. FLAG-tagged wild-type TIF-IA and the indicated mutant were assayed for their transcriptional activity in vitro.
(§1) Nuclear extracts were prepared from exponentially growing (8×10^5 cells/ml), density-arrested or PD98059-treated (CN Bioscience, Bad Soden, Germany) 40 μM, 0.5 hr) or rapamycin-treated FM3A cells (ATCC, Manassas, USA). 25 μl assays contained 50 ng of template DNA (pMr600/EcoRI), 30 μg nuclear extract proteins and 12 mM Hepes-KOH, [pH8.0], 0.1 mM EDTA, 5 mM MgCl2, 80 mM KCl, 10 mM creatine phosphate, 12% (v/v) glycerol, 0.66 mM each of ATP, GTP and CTP, 0.01 mM UTP and 0.5 μCi [α-^32P]UTP (5000 Ci/mmol). After incubation for 60 min at 30° C., RNA was extracted and analyzed on non-denaturing 5% polyacrylamide gels
TIF-IA was immunopurified from untransfected NIH3T3 cells or from HEK293T cells overexpressing FLAG-tagged TIF-IA. 4×10^6 cells were lysed in 0.8 ml IP buffer (20 mM Tris-HCl [pH 7.4], 200 mM NaCl, 2 mM EDTA, 2 mM EGTA, 1% Triton X-100, 0.5 mM PMSF, 1 μg/ml aprotinin, 5 μg/ml leupeptin and 1 μg/ml pepstatin A), centrifuged at 10,000 g for 30 min, and the supernatants were incubated for 4 hr at 4° C. with either 10 μg anti-TIF-IA antibodies bound to 20 μl protein G-agarose or with anti-FLAG (M2) agarose (Sigma-Aldrich Corp., Missouri, USA). The immunocomplexes were successively washed with buffer AM (20 mM Tris-HCl [pH 8.0], 5 mM MgCl2, 0.1 mM EDTA, 20% glycerol) containing 400 and 100 mM KCl, respectively. The amount and purity of TIF-IA was estimated on silver-stained polyacrylamide gels and similar amounts of bead-bound TIF-IA were used in in vitro transcription assays. GST fusion proteins were expressed in E. coli BL21(DE3) and purified on Glutathione-Sepharose 4B according to the manufacturer's instructions.
To assess the functional relevance of S633 and S649 phosphorylation on transcriptional activity, the respective S→A and S→D single or double point mutants were purified from transfected cells and assayed for their capability to rescue transcription of extracts from density-arrested cells. […] Thus, phosphorylation of TIF-IA at S649 and S633 is required for transcriptional activity.
Phosphorylation of peptide a should inhibit TIF-IA activity, while phosphorylation of peptide b, e.g. S44, should augment TIF-IA activity.

HEK293T cells = assay: Quantitative fluorimetric viability assay with calcein-AM; type: cell-based; conditions: 24, 36, 48 and 60 hr after transfection; 2 μM calcein-AM
Method: (B) Quantitative fluorimetric viability assay with calcein-AM. HEK293T cells were transfected with TIF-IA or the indicated point mutants. […] Viable cells were measured 24, 36, 48 and 60 hr after transfection by incubation with […] calcein-AM. The gradual increase in fluorescence intensity was recorded with a fluorescence multi-well plate reader for 20 min with an excitation wavelength of 485 nm and an emission wavelength of 530 nm. The proliferation rate of mock-transfected cells and cells overexpressing TIF-IA is shown at the left. Plots show the accumulation of calcein fluorescence (arbitrary units) against time. Growth rates calculated from linear regression curves are shown at the right. Values are presented as the mean±SD from three independent experiments performed in duplicates.
Conversion of calcein-AM (calcein acetoxymethyl ester, (CN Bioscience GmbH, Bad Soden, Germany) to calcein was used to measure cell proliferation. 12 hr after transfection, HEK293T cells were seeded to 96-well micro-plates at 1×10^4 cells/well. After 24, 36, 48 and 60 hr, cells were washed with PBS, incubated with 2 μM calcein-AM, and the gradual increase in fluorescence intensity within the cells was recorded by a fluorescence multi-well plate reader (CytoFluor Series 4000/TC, PerSeptive Biosystems, (Applied Biosystems, Forster City, USA) for 20 min in 1 min intervals. Excitation wavelength used for measurements of fluorescence was 485 nm with a bandwidth of 20 nm; emission wavelength was 530 nm with a bandwidth of 25 nm. Under the experimental conditions used, there is a direct correlation between the accumulation ratio of intracellular calcein fluorescence and the number of viable cells. The data from three independent experiments were analyzed by Sigmaplot and expressed as the mean±standard deviation. For statistical analysis, student's t test was used. Differences with a P<0.01 were considered statistically significant.
Given the functional significance of ERK/RSK-directed TIF-IA phosphorylation on Pol I transcription, mutations that enhance or abrogate TIF-IA activity may have a positive or negative effect on cell growth. To test this, HEK293T cells were transfected with cDNAs encoding wild-type or mutant TIF-IA which harbor single or double point mutations at S649 and S633. The expression of TIF-IA was estimated on Western blots and the cellular growth rate was measured by calcein-AM staining. Calcein-AM is a non-fluorescent, hydrophobic compound that is rapidly hydrolyzed by intracellular esterases releasing hydrophilic fluorescent calcein. Thus, cellular calcein fluorescence correlates with the amount of viable cells. […] Cells expressing FLAG-tagged wild-type or mutant TIF-IA were stained with FITC-conjugated anti-FLAG antibodies, identified by FACS and cell numbers were calculated by measuring the ratio of stained cells versus an internal standard. […] Conversely, the number of cells expressing TIF-IAS649A was 33% lower than the control. […] Taken together, the results reveal a striking correlation between phosphorylation of TIF-IA at serine 649, cellular rRNA synthetic activity and cell cycle progression.

Pol I = assay: Co-immunoprecipitation of Pol I with TIF-IA mutants from HEK293T cells; type: binding, human
Method: (§2) (B) A mutant that mimics phosphorylation of TIF-IA at S199 fails to interact with Pol I and TIF-IB. FLAG-tagged wild-type TIF-IA or the indicated point mutants were overexpressed in HEK293T cells and immunoprecipitated from cell lysates with anti-FLAG antibodies (M2 agarose). Co-precipitated Pol I and TIF-IB/SL1 were visualized on Western blots with anti-RPA116 and anti-TAFI110 antibodies.
(§3) Immunoprecipitations were carried out from human cells overexpressing FLAG-tagged TIF-IA. Cells were lysed in IP buffer, cleared by centrifugation at 10,000×g for 30 min, and the supernatants were incubated for 4 hr at 4° C. with anti-FLAG (M2) agarose (Sigma). To analyze the interaction of TIF-IA with TIF-IB/SL1, the immunoprecipitates were washed with IP buffer and TIF-IB/SL1 was visualized on immunoblots with α-TAFI110 antibodies. To monitor the interaction of TIF-IA with Pol I, the immunoprecipitates were washed with IP buffer containing 600 mM NaCl and Pol I was analyzed on Western blots using antibodies against the second largest subunit of Pol I (RPA116) or PAF67 (Seither et al., J. Biol. Chem. 382 (2001), 1163-1170).
(§4) Given the importance of mTOR-mediated alterations in the phosphorylation pattern on TIF-IA activity, one could predict that either phosphorylation of S199, dephosphorylation of S44 or both regulate the interaction of TIF-IA with the Pol I transcription apparatus. It was therefore examined whether the S→A or S→D point mutant(s) were capable of interacting with Pol I and/or TIF-IB/SL1. For this, TIF-IA was precipitated from cells overexpressing either FLAG-tagged wild-type TIF-IA or the respective S199 and S44 mutant(s), and co-precipitated Pol I and TIF-IB/SL1 were visualized on Western blots.

TIF-IB/SL1 = assay: Co-immunoprecipitation of TIF-IB/SL1 with TIF-IA mutants from HEK293T cells; type: binding, human
Method: as §2, §3, §4

Pol I transcription [2] = assay: In vitro transcription: TIF-IA mutants added to nuclear extract from exponentially growing FM3A cells; type: biochemical, murine; conditions: 20 and 40 ng added to 15 ug nuclear extract
Method: 20 and 40 ng of the indicated TIF-IA mutants were added to 15 ug nuclear extract from exponentially growing FM3A cells and rDNA transcription was assayed.
as §1
Given that phosphorylation of TIF-IA at serine 649 is essential for transcription, excess of TIF-IAS649A should impair Pol I transcription. To test this, we examined the effect of exogenous wild-type and mutant TIF-IA on transcriptional activity of extracts from exponentially growing cells.

[3] = S633/S649 mutants, 20 and 40 ng
[4] = S199 and S44 mutants, 30 and 60 ng

Row | Substance | capability to rescue transcription of extracts from density-arrested cells (Pol I transcription [1]; [3]) | cellular growth rate by calcein-AM staining (HEK293T cells) | capability to rescue transcription of extracts from density-arrested cells (Pol I transcription [1]; [4]) | interaction with Pol I (co-precipitated RPA116) (Pol I) | interaction with TIF-IB/SL1 (co-precipitated TAFI110) (TIF-IB/SL1) | effect on transcriptional activity of extracts from exponentially growing cells (Pol I transcription [2])
1 | S633D: TIF-IA point mutant, serine 633 replaced by aspartic acid | less active than wild-type TIF-IA | – | – | – | – | –
2 | TIF-IAS633AS649A: TIF-IA double mutant, serines 633 and 649 replaced by alanine | abolished TIF-IA activity | impaired cell growth | – | – | – | –
3 | TIF-IAS199D: TIF-IA mutant, replacement of S199 by aspartic acid | – | – | abolished TIF-IA activity | no association of either Pol I or TIF-IB/SL1 could be detected | no association of either Pol I or TIF-IB/SL1 could be detected | –
4 | TIF-IAS633A: TIF-IA point mutant, serine 633 replaced by alanine | abolished TIF-IA activity | – | – | – | – | suppressed transcription well below the basal level
5 | TIF-IAS633DS649D: TIF-IA double mutant, serines 633 and 649 replaced by aspartic acid | TIF-IA activity was increased | accelerated cell growth | – | – | – | –
6 | TIF-IAS199A: the mutant in which S199 was changed to alanine | – | – | activated Pol I transcription like wild-type TIF-IA | interacted with both Pol I and TIF-IB/SL1 | interacted with both Pol I and TIF-IB/SL1 | –
